Source: paper PMC6222606, “Biodegradation of 7-Hydroxycoumarin in Pseudomonas mandelii 7HK4 via ipso-Hydroxylation of 3-(2,4-Dihydroxyphenyl)-propionic Acid” (Molecules : A Journal of Synthetic Chemistry and Natural …, 2018)

Biological target: T1, HcdB (Pseudomonas mandelii, UniProt A0A385IUB9)
T1 sequence (A0A385IUB9 1-186): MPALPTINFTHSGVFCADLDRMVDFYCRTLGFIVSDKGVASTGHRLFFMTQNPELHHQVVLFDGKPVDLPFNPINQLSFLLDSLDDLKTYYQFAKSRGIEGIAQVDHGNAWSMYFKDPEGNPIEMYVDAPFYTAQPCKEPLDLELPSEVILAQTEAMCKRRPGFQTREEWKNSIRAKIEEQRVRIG
Assay: whole-cell bioconversion, UV-VIS of yellow meta-cleavage product; cells without hcdB inactive
Assay type: cell-based
Conditions: […] potassium phosphate pH […] °C, […] substrate

## Oc1ccccc1O [pyrocatechol]
  whole-cell bioconversion, UV-VIS of yellow meta-cleavage product; cells without: HcdB is capable oxidizing pyrocatechol, 3-methylcatechol, 3-methoxycatechol, 4-methylcatechol
